ChEMBL document CHEMBL1158976, “Efficient Isolation of Glycosidase Inhibitory Stilbene Glycosides from Rheum palmatum” (J Nat Prod, 1991)
In brackets after ≈: the same amount, converted by molar mass. Activity calls are given as the source filed them. No cut-off for these calls is given here.

Columns and labels:
[1] = Inhibition of yeast alpha-glucosidase; parameters: species or system Saccharomyces cerevisiae
Biomphalaria glabrata = test: Molluscicidal activity against Biomphalaria glabrata at 200 ppm; assay type: functional, organism-based

| SMILES | IC50 [1] | Activity (Biomphalaria glabrata) |
| --- | --- | --- |
| COc1ccc(/C=C/c2cc(O)cc(O[C@@H]3O[C@H](CO)[C@@H](O)[C@H](O)[C@H]3O)c2)cc1 | 280 µg/mL (≈ 692 µM) | inactive |
| COc1ccc(/C=C/c2cc(O)cc(O[C@@H]3O[C@H](CO)[C@@H](O)[C@H](O)[C@H]3O)c2)cc1O [RHAPONTIN] | 600 µg/mL (≈ 1430 µM) | inactive |
